Reference: patent publication US4590264A, “Lipoglycosides and process of extracting same” (Wofor AG, priority 1983, dated 1986)
“Also recorded” adds a separate entry of the source.

What was measured:
[1] = system: tumor cells derived from human carcinoma of the nasopharynx (KB cells); experiment: KB cell assay: cytotoxicity, cell count (alive, dead) after 48 h incubation; assay type: cell-based; settings: for Cell count after incubation, dead / Cell count after incubation, alive: cell count before incubation = 100, Table 3; for Cell count after incubation, dead: control 0; for Cell count after incubation, alive: control 200
Experimental: The plant is subjected to extraction in various solvents having different polarities (i.e. dielectric constants) at room temperature for a period of from 1 to 10 days. By room temperature, it is meant from about 20° C. to about 25° C. The extract-containing solvents are each tested for their biological activity. As a measure of biological activity, the cytotoxicity of the extracts against tumor cells derived from human carcinoma of the nasopharynx (KB cells) is measured. Those extracts which show the capability of killing KB cells are fractionated to yield the compounds of the present invention.
A sample of cells was taken from a stock supply furnished by a well known commercial laboratory. The primary culture was Minimal Essential Medium (MEM), Flo Laboratories, 10% fetal calf serum. Trypsinization was conducted with 0.2% trypsin in isotonic NaCl. The cells were counted with 0.1% Tripan Blue. The cells were subcultured in a 5 to 1 split in microtiter plates at 2×10^5 cells per well. The volume of culture placed in each well was 1 ml. The cells were counted at three locations before the addition of the extract to yield an average cell count.
Each of the extracts to be tested was added to the cells at a specific concentration as an ethanolic solution. The cells were incubated at 37° C. for 48 hours. Thereafter, the cells were again counted at three locations to provide an average cell count.
As a control, a cell sample was incubated for the same period in culture medium and without the addition of any plant extract.
Each of the extracts obtained above was tested for its effect on KB cells. The cell culture assay protocol described above was used.

[2] = Solubility in solvents; assay type: physicochemical; settings: solvents as named in the value

SMILES	Cell count after incubation, dead ([1]; 10 μg/ml)	Cell count after incubation, alive ([1]; 10 μg/ml)	Cell count after incubation, dead ([1]; 100 μg/ml)	Cell count after incubation, alive ([1]; 100 μg/ml)	activity against KB cells / antitumor activity (in words) [1]	Solubility (in words) [2]
CCC1CCCCCCCCCCCCCCCCCCC(=O)OC[C@H]2O[C@@H](O1)[C@H](OC(C)=O)[C@@H](O)[C@@H]2O (stereo partly shown) [Compound I]	0	15	0	0	active; also recorded: possess antitumor properties	Soluble in CHCl3, methanol; also recorded: Sparingly soluble in acetyl ethyl ether and acetone; also recorded: Insoluble in ethyl ether and petroleum ether
CCC(O)CCCCCCCCCCCCCCCCCCC(=O)OC (stereo not shown) [Example 5, 20-hydroxydocosanoic acid methyl ester]						soluble in n-hexane, benzene and chloroform but insoluble in methanol and acetone
CCC1CCCCCCCCCCCCCCCCCCC(=O)OC[C@H]2O[C@@H](O1)[C@H](O)[C@@H](OC(C)=O)[C@@H]2O (stereo partly shown) [Compound II]	0.5	104.5	0	0	active; also recorded: possess antitumor properties	soluble in CH2 Cl2 and benzene but insoluble in methanol and ether; also recorded: Insoluble in methanol, ethyl ether
